Measured values: patent US20220324815A1, “2-PHENOXY-PYRIMIDINE DERIVATIVES AS HERBICIDAL COMPOUNDS” (SYNGENTA CROP PROTECTION AG, priority 2019, published 2022)

Assays:
Type in all cases: in vivo
Settings in all cases: 250 g/ha unless otherwise stated, evaluated after 13 days, five-point scale
Solanum nigrum (SOLNI) [1] = experiment: Test 1 glasshouse herbicide test, post-emergence application (Table B1)
In short: (§1)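 Score is % phytotoxicity after 13 days, binned 1 (0–20%) to 5 (81–100%). Compound given at 250 g/ha unless stated, as acetone/water (50:50) spray with 0.5% Tween 20, one day post-sowing (pre-emergence) or after 8 days' growth (post-emergence); glasshouse at 24/16 °C day/night, 14 h light, 65% humidity.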

Lolium perenne (LOLPE) [2] = experiment: as above
In short: as §1

[3] = tested on: Ipomoea hederacea (IPOHE); experiment: as above
In short: as §1

[4] = tested on: Amaranthus retoflexus (AMARE); experiment: as above
In short: as §1

[5] = tested on: Echinochloa crus-galli (ECHCG); experiment: as above
In short: as §1

Setaria faberi (SETFA) [6] = experiment: as above
In short: as §1

Solanum nigrum (SOLNI) [7] = experiment: Test 1 glasshouse herbicide test, pre-emergence application (Table B2)
In short: as §1

Lolium perenne (LOLPE) [8] = experiment: as above
In short: as §1

[9] = tested on: Ipomoea hederacea (IPOHE); experiment: as above
In short: as §1

[10] = tested on: Amaranthus retoflexus (AMARE); experiment: as above
In short: as §1

[11] = tested on: Echinochloa crus-galli (ECHCG); experiment: as above
In short: as §1

Setaria faberi (SETFA) [12] = experiment: as above
In short: as §1

SMILES: Fc1cccc(Oc2ncc(Cl)cn2)c1SCCC(F)(F)F [Compound A7]
- % phytotoxicity SOLNI, post-emergence application (Solanum nigrum (SOLNI) [1]): 5 (5=81 to 100%)
- % phytotoxicity LOLPE, post-emergence application (Lolium perenne (LOLPE) [2]): 2 (2=21 to 40%)
- % phytotoxicity IPOHE, post-emergence application [3]: 2 (2=21 to 40%)
- % phytotoxicity AMARE, post-emergence application [4]: 5 (5=81 to 100%)
- % phytotoxicity ECHCG, post-emergence application [5]: 4 (4=61 to 80%)
- % phytotoxicity SETFA, post-emergence application (Setaria faberi (SETFA) [6]): 5 (5=81 to 100%)
- % phytotoxicity SOLNI, pre-emergence application (Solanum nigrum (SOLNI) [7]): 4 (4=61 to 80%)
- % phytotoxicity LOLPE, pre-emergence application (Lolium perenne (LOLPE) [8]): 4 (4=61 to 80%)
- % phytotoxicity IPOHE, pre-emergence application [9]: 2 (2=21 to 40%)
- % phytotoxicity AMARE, pre-emergence application [10]: 5 (5=81 to 100%)
- % phytotoxicity ECHCG, pre-emergence application [11]: 5 (5=81 to 100%)
- % phytotoxicity SETFA, pre-emergence application (Setaria faberi (SETFA) [12]): 5 (5=81 to 100%)

SMILES: [O-][S+](CCC(F)(F)F)c1c(F)cccc1Oc1ncc(Cl)cn1 (stereo not drawn) [Compound A8]
- % phytotoxicity SOLNI, post-emergence application (Solanum nigrum (SOLNI) [1]): 4 (4=61 to 80%)
- % phytotoxicity LOLPE, post-emergence application (Lolium perenne (LOLPE) [2]): 1 (1=0 to 20%)
- % phytotoxicity IPOHE, post-emergence application [3]: 2 (2=21 to 40%)
- % phytotoxicity AMARE, post-emergence application [4]: 5 (5=81 to 100%)
- % phytotoxicity ECHCG, post-emergence application [5]: 1 (1=0 to 20%)
- % phytotoxicity SETFA, post-emergence application (Setaria faberi (SETFA) [6]): 3 (3=41 to 60%)
- % phytotoxicity SOLNI, pre-emergence application (Solanum nigrum (SOLNI) [7]): 4 (4=61 to 80%)
- % phytotoxicity LOLPE, pre-emergence application (Lolium perenne (LOLPE) [8]): 2 (2=21 to 40%)
- % phytotoxicity IPOHE, pre-emergence application [9]: 2 (2=21 to 40%)
- % phytotoxicity AMARE, pre-emergence application [10]: 5 (5=81 to 100%)
- % phytotoxicity ECHCG, pre-emergence application [11]: 2 (2=21 to 40%)
- % phytotoxicity SETFA, pre-emergence application (Setaria faberi (SETFA) [12]): 4 (4=61 to 80%)

SMILES: O=S(=O)(CCC(F)(F)F)c1c(F)cccc1Oc1ncc(Cl)cn1 [Compound A9]
- % phytotoxicity SOLNI, post-emergence application (Solanum nigrum (SOLNI) [1]): 5 (5=81 to 100%)
- % phytotoxicity LOLPE, post-emergence application (Lolium perenne (LOLPE) [2]): 3 (3=41 to 60%)
- % phytotoxicity IPOHE, post-emergence application [3]: 3 (3=41 to 60%)
- % phytotoxicity AMARE, post-emergence application [4]: 5 (5=81 to 100%)
- % phytotoxicity ECHCG, post-emergence application [5]: 3 (3=41 to 60%)
- % phytotoxicity SETFA, post-emergence application (Setaria faberi (SETFA) [6]): 4 (4=61 to 80%)
- % phytotoxicity SOLNI, pre-emergence application (Solanum nigrum (SOLNI) [7]): 5 (5=81 to 100%)
- % phytotoxicity LOLPE, pre-emergence application (Lolium perenne (LOLPE) [8]): 4 (4=61 to 80%)
- % phytotoxicity IPOHE, pre-emergence application [9]: 4 (4=61 to 80%)
- % phytotoxicity AMARE, pre-emergence application [10]: 5 (5=81 to 100%)
- % phytotoxicity ECHCG, pre-emergence application [11]: 4 (4=61 to 80%)
- % phytotoxicity SETFA, pre-emergence application (Setaria faberi (SETFA) [12]): 5 (5=81 to 100%)

SMILES: FC(F)(F)CCSc1c(Cl)cccc1Oc1ncc(Cl)cn1 [Compound A10, 5-chloro-2-[3-chloro-2-(3,3,3-trifluoropropylsulfanyl)phenoxy]pyrimidine]
- % phytotoxicity SOLNI, post-emergence application (Solanum nigrum (SOLNI) [1]): 5 (5=81 to 100%)
- % phytotoxicity LOLPE, post-emergence application (Lolium perenne (LOLPE) [2]): 5 (5=81 to 100%)
- % phytotoxicity IPOHE, post-emergence application [3]: 4 (4=61 to 80%)
- % phytotoxicity AMARE, post-emergence application [4]: 5 (5=81 to 100%)
- % phytotoxicity ECHCG, post-emergence application [5]: 5 (5=81 to 100%)
- % phytotoxicity SETFA, post-emergence application (Setaria faberi (SETFA) [6]): 5 (5=81 to 100%)
- % phytotoxicity SOLNI, pre-emergence application (Solanum nigrum (SOLNI) [7]): 4 (4=61 to 80%)
- % phytotoxicity LOLPE, pre-emergence application (Lolium perenne (LOLPE) [8]): 4 (4=61 to 80%)
- % phytotoxicity IPOHE, pre-emergence application [9]: 3 (3=41 to 60%)
- % phytotoxicity AMARE, pre-emergence application [10]: 5 (5=81 to 100%)
- % phytotoxicity ECHCG, pre-emergence application [11]: 5 (5=81 to 100%)
- % phytotoxicity SETFA, pre-emergence application (Setaria faberi (SETFA) [12]): 5 (5=81 to 100%)

SMILES: [O-][S+](CCC(F)(F)F)c1c(Cl)cccc1Oc1ncc(Cl)cn1 (stereo not drawn) [Compound A11]
- % phytotoxicity SOLNI, post-emergence application (Solanum nigrum (SOLNI) [1]): 5 (5=81 to 100%)
- % phytotoxicity LOLPE, post-emergence application (Lolium perenne (LOLPE) [2]): 4 (4=61 to 80%)
- % phytotoxicity IPOHE, post-emergence application [3]: 5 (5=81 to 100%)
- % phytotoxicity AMARE, post-emergence application [4]: 5 (5=81 to 100%)
- % phytotoxicity ECHCG, post-emergence application [5]: 5 (5=81 to 100%)
- % phytotoxicity SETFA, post-emergence application (Setaria faberi (SETFA) [6]): 5 (5=81 to 100%)
- % phytotoxicity SOLNI, pre-emergence application (Solanum nigrum (SOLNI) [7]): 5 (5=81 to 100%)
- % phytotoxicity LOLPE, pre-emergence application (Lolium perenne (LOLPE) [8]): 5 (5=81 to 100%)
- % phytotoxicity IPOHE, pre-emergence application [9]: 5 (5=81 to 100%)
- % phytotoxicity AMARE, pre-emergence application [10]: 5 (5=81 to 100%)
- % phytotoxicity ECHCG, pre-emergence application [11]: 5 (5=81 to 100%)
- % phytotoxicity SETFA, pre-emergence application (Setaria faberi (SETFA) [12]): 5 (5=81 to 100%)
